Data taken from patent US20090221523A1 (priority 2005, published 2009).
Converted amounts (≈) assume the structure as drawn. Where two headings read alike, the source gives them in different places. Marks after values point to notes of the source that are not given here.

Experiments:
[1] = system: CV strain TK:GFP lacZ (TK−); test: microbe, parasite or virus in culture; format: cell-based; conditions: Cowpox virus, Vero, read-out: CV TK:GFP lacZ EC50 (TK−)
HSV-1 strain F = test: microbe, parasite or virus in culture; format: cell-based, herpes simplex virus; conditions: Human alphaherpesvirus 1, HFF
HSV-1 TK− strain DM2.1 = test: microbe, parasite or virus in culture; format: cell-based, herpes simplex virus; conditions: Human alphaherpesvirus 1, HFF
[2] = system: CV strain delta crmA (TK+); test: microbe, parasite or virus in culture; format: cell-based; conditions: Cowpox virus, Vero, read-out: CV delta crmA EC50 (TK+)
in vitro = conditions: human
[3] = system: Cc1cn([C@H]2C[C@H](O)[C@@H](CO)O2)c(=O)[nH]c1=O; test: purified protein, by the assay type
HSV-1 strain E377 = system: HSV-1 strain E377; design: species or system BALB/c mice; conditions: mouse, in vivo
ΔcrmA (TK+) CV strain = test: microbe, parasite or virus in culture; format: cell-based; conditions: Cowpox virus, HFF, read-out: EC50 CV (Δcrm lacZ) TK+
[4] = system: TK:GFP lacZ (TK−) CV strain; test: microbe, parasite or virus in culture; format: cell-based; conditions: Cowpox virus, HFF, read-out: EC50 CV (TK:gpf lacZ)
[5] = system: cowpox virus (Brighton strain); test: microbe, parasite or virus in culture; format: cell-based; conditions: HFF, read-out: Cowpox (Brighton) EC50
[6] = system: vaccinia virus (Copenhagen Strain); test: microbe, parasite or virus in culture; format: cell-based; conditions: Orthopoxvirus vaccinia, HFF, read-out: Vaccinia (Copenhagen) EC50
WR strain of VV = test: microbe, parasite or virus in culture; format: cell-based; conditions: Orthopoxvirus vaccinia, HFF, 24 h, read-out: EC50 for inhibiting VV DNA synthesis
[7] = system: vaccinia virus (Copenhagen Strain); test: microbe, parasite or virus in culture; format: cell-based
HFF cells [8] = test: cells; format: cell-based; conditions: Homo sapiens, 72 h, read-out: IC50, 50% inhibition of cell proliferation
[9] = system: cowpox virus (Brighton strain); test: microbe, parasite or virus in culture; format: cell-based; conditions: HFF, read-out: CV (Brighton) EC50
vaccinia (WR strain) = system: vaccinia (WR strain); design: species or system mice; Mean Lung Virus Titer: unit not given here; conditions: mouse, in vivo
purified VV TK = purified VV TK (Vaccinia virus, UniProt P68564)
VV strain WR = system: VV strain WR; design: species or system BALB/c mice; conditions: mouse, in vivo, ip, 15 mg/kg
vaccinia (HID strain) = system: vaccinia (HID strain); design: species or system mice; Mean Lung Virus Titer: unit not given here; conditions: mouse, in vivo
cowpox Brighton Strain [10] = system: cowpox Brighton Strain; design: species or system BALB/c mice; conditions: mouse, in vivo
vaccinia WR strain = system: vaccinia WR strain; design: species or system BALB/c mice; conditions: mouse, in vivo
cowpox Brighton Strain [11] = system: cowpox Brighton Strain; design: species or system BALB/c mice; conditions: mouse, in vivo; remark: listed apart in the source
HFF cells [12] = conditions: human
vaccinia IHD strain = system: vaccinia IHD strain; design: species or system BALB/c mice; conditions: mouse, in vivo
[13] = read-out: HSV-1 DM2.1 EC50 (TK−)
[14] = read-out: EC50 HSV-1 (DM2.1) TK−

O=c1[nH]c(=O)n([C@H]2C[C@H](O)[C@@H](CO)O2)cc1Br [BrdU, 5-bromodeoxyuridine]
EC50 [1]: 19 µg/mL (≈ 61.9 µM)
EC50 (HSV-1 strain F; read-out: HSV-1 F EC50 (TK+)): 1.6 ± 0.2 µg/mL (≈ 5.21 µM)
EC50 (HSV-1 TK− strain DM2.1; [13]): 39 ± 6.3 µg/mL (≈ 127 µM)
EC50 [2]: 0.37 µg/mL (≈ 1.2 µM)
CC50 (in vitro): > 100 µg/mL

purified VV TK (Vaccinia virus Copenhagen)
Km [3]: 49 ± 7.6 µM
Vmax [3]: 289 µM/min/mg

Nc1nc2c(ncn2COCCO)c(=O)[nH]1 [ACV, acyclovir]
EC50 [1]: > 30 µg/mL
EC50 (HSV-1 strain F; read-out: EC50 HSV-1 (F) TK+): 0.3 µg/mL (≈ 1.33 µM)
EC50 (HSV-1 strain F; read-out: HSV-1 F EC50 (TK+)): 0.35 ± 0.2 µg/mL (≈ 1.55 µM)
EC50 (HSV-1 TK− strain DM2.1; [14]): > 100 µg/mL
EC50 (HSV-1 TK− strain DM2.1; [13]): > 100 µg/mL
EC50 [2]: > 30 µg/mL
CC50 (in vitro): > 100 µg/mL
Mortality % (HSV-1 strain E377): 0%
Mortality No. dead/total no. (HSV-1 strain E377): 0/15

O=c1[nH]c(=O)n([C@H]2C[C@H](O)[C@@H](CO)O2)cc1I [IDU, idoxuridine]
EC50 (ΔcrmA (TK+) CV strain): 0.4 ± 0.18 µg/mL (≈ 1.13 µM)
EC50 [1]: 16 ± 9.3 µg/mL (≈ 45.2 µM)
EC50 (HSV-1 strain F; read-out: EC50 HSV-1 (F) TK+): 2.1 ± 0.1 µg/mL (≈ 5.93 µM)
EC50 (HSV-1 strain F; read-out: HSV-1 F EC50 (TK+)): 2.1 ± 0.1 µg/mL (≈ 5.93 µM)
EC50 (HSV-1 TK− strain DM2.1; [14]): 54 ± 8.1 µg/mL (≈ 152 µM)
EC50 (HSV-1 TK− strain DM2.1; [13]): 54 ± 8.1 µg/mL (≈ 152 µM)
EC50 [2]: 2.2 ± 0.87 µg/mL (≈ 6.21 µM)
CC50 (in vitro): > 100 µg/mL
EC50 [4]: 22 ± 9.3 µg/mL (≈ 62.1 µM)

Nc1ncnc2c1ncn2[C@@H]1O[C@H](CO)[C@@H](O)[C@@H]1O [AraA, vidarabine]
EC50 [1]: 0.78 ± 0.2 µg/mL (≈ 2.92 µM)
EC50 (HSV-1 strain F; read-out: HSV-1 F EC50 (TK+)): 6.4 ± 3.4 µg/mL (≈ 23.9 µM)
EC50 (HSV-1 TK− strain DM2.1; [13]): 4.9 µg/mL (≈ 18.3 µM)
EC50 [2]: 0.91 ± 0.005 µg/mL (≈ 3.41 µM)
CC50 (in vitro): > 100 µg/mL

O=c1[nH]c(=O)n([C@H]2C[C@H](O)[C@@H](CO)O2)cc1/C=C/Br [BVDU, brivudin]
EC50 [1]: > 30 µg/mL
EC50 (HSV-1 strain F; read-out: HSV-1 F EC50 (TK+)): 0.09 µg/mL (≈ 0.27 µM)
EC50 (HSV-1 TK− strain DM2.1; [13]): 100 µg/mL (≈ 300 µM)
EC50 [2]: > 30 µg/mL
CC50 (in vitro): > 100 µg/mL

O=c1[nH]c(=O)n([C@H]2C[C@H](O)[C@@]3(CO)CC23)cc1Br (stereo partly drawn) [N-MCBrU]
EC50 [5]: 11.5 µg/mL (≈ 36.3 µM)
EC50 [6]: 0.6 µg/mL (≈ 1.89 µM)
CC50 (in vitro): > 100 µg/mL

Nc1ccn(C[C@@H](CO)OCP(=O)(O)O)c(=O)n1 [CDV, cidofovir]
EC50 (WR strain of VV): 3 µg/mL (≈ 10.7 µM)
EC50 (ΔcrmA (TK+) CV strain): 3.5 ± 3.3 µg/mL (≈ 12.5 µM)
VV (Copenhagen) EC50 [7]: 3.3 ± 0.3 µg/mL
EC50 ([7]; Orthopoxvirus vaccinia, HFF, read-out: VV (Copenhagen) EC50): 3 µg/mL (≈ 10.7 µM)
EC50 [1]: 3.3 ± 2.3 µg/mL (≈ 11.8 µM)
IC50 (HFF cells [8]): 20 ± 7 µg/mL (≈ 71.6 µM)
EC50 (HSV-1 strain F; read-out: EC50 HSV-1 (F) TK+): 1.5 ± 1.1 µg/mL (≈ 5.37 µM)
EC50 (HSV-1 strain F; read-out: HSV-1 F EC50 (TK+)): 1.5 ± 1.1 µg/mL (≈ 5.37 µM)
EC50 [9]: 4.4 ± 0.6 µg/mL (≈ 15.8 µM)
MDD (mean day of death of mice that died prior to day 21) (vaccinia (WR strain)): 8.0 days
Mean Lung Virus Titer (vaccinia (WR strain)): 7.0 ± 0.2
Survivors/Total (vaccinia (WR strain)): 9/10***
Vmax (purified VV TK): <0.025 µM/min/mg
Mortality % (VV strain WR): 0%
Mortality No. dead/total no. (VV strain WR): 0/15
EC50 (HSV-1 TK− strain DM2.1; [14]): 1.5 ± 1.4 µg/mL (≈ 5.37 µM)
EC50 (HSV-1 TK− strain DM2.1; [13]): 1.5 ± 1.4 µg/mL (≈ 5.37 µM)
MDD, mean day of death (vaccinia (HID strain)): >21*** day
Mean Lung Virus Titer (vaccinia (HID strain)): 4.7 ± 0.6
Survivors/Total (vaccinia (HID strain)): 10/10***
EC50 [2]: 16.1 ± 0.3 µg/mL (≈ 57.7 µM)
CC50 (in vitro): > 100 µg/mL
Mortality Number (cowpox Brighton Strain [10]): 0/15
Mortality Percent (cowpox Brighton Strain [10]): 0%
Mortality % (cowpox Brighton Strain [10]; ip, 15 mg/kg): 0%
Mortality No. dead/total no. (cowpox Brighton Strain [10]; ip, 15 mg/kg): 0/15
EC50 [4]: 4.2 ± 3.9 µg/mL (≈ 15 µM)
Number of Survivors (vaccinia WR strain): 10/10
Number of Survivors (cowpox Brighton Strain [11]): 10/10
CC50 (HFF cells [12]): >100 ± 0 µg/mL
Toxicity CC50 (HFF cells [12]): >100 ± 0 µg/mL
Mortality Number (vaccinia IHD strain): 0/15
Mortality Percent (vaccinia IHD strain): 0%
Mortality % (vaccinia IHD strain; ip, 15 mg/kg): 0%
Mortality No. dead/total no. (vaccinia IHD strain; ip, 15 mg/kg): 0/15

Nc1nc(=O)n([C@@H]2O[C@H](CO)[C@@H](O)[C@@H]2F)cc1I [FIAC, fiacitabine]
EC50 [1]: 9.2 ± 3.7 µg/mL (≈ 24.8 µM)
EC50 (HSV-1 strain F; read-out: HSV-1 F EC50 (TK+)): 0.06 ± 0.02 µg/mL (≈ 0.162 µM)
Vmax (purified VV TK): <0.14 µM/min/mg
EC50 (HSV-1 TK− strain DM2.1; [13]): 8 ± 1.3 µg/mL (≈ 21.6 µM)
EC50 [2]: 18 ± 0.25 µg/mL (≈ 48.5 µM)
CC50 (in vitro): > 100 µg/mL

O=c1[nH]c(=O)n([C@H]2C[C@H](O)[C@@H](CO)O2)cc1F [FdU, 5-fluorodeoxyuridine]
EC50 [1]: 0.37 µg/mL (≈ 1.5 µM)
EC50 (HSV-1 strain F; read-out: HSV-1 F EC50 (TK+)): 2.5 ± 1.7 µg/mL (≈ 10.2 µM)
EC50 (HSV-1 TK− strain DM2.1; [13]): 4.5 ± 3.3 µg/mL (≈ 18.3 µM)
EC50 [2]: 0.37 µg/mL (≈ 1.5 µM)
CC50 (in vitro): 60 ± 0.7 µg/mL (≈ 244 µM)

O=c1[nH]c(=O)n([C@@H]2O[C@H](CO)[C@@H](O)[C@@H]2O)cc1/C=C/Br [BVAU, sorivudine]
EC50 [1]: > 30 µg/mL
EC50 (HSV-1 strain F; read-out: HSV-1 F EC50 (TK+)): 0.05 ± 0.02 µg/mL (≈ 0.143 µM)
EC50 (HSV-1 TK− strain DM2.1; [13]): > 100 µg/mL
EC50 [2]: > 30 µg/mL
CC50 (in vitro): > 100 µg/mL

O=c1[nH]c(=O)n([C@@H]2O[C@H](CO)[C@@H](O)[C@@H]2F)cc1I [FIAU, fialuridine]
EC50 [1]: 19 ± 6.7 µg/mL (≈ 51.1 µM)
EC50 (HSV-1 strain F; read-out: HSV-1 F EC50 (TK+)): 0.05 ± 0.03 µg/mL (≈ 0.134 µM)
EC50 (HSV-1 TK− strain DM2.1; [13]): 3.9 ± 3.3 µg/mL (≈ 10.5 µM)
EC50 [2]: 14 ± 7 µg/mL (≈ 37.6 µM)
CC50 (in vitro): > 100 µg/mL

O=c1[nH]c(=O)n([C@H]2C[C@H](O)[C@@H](CO)O2)cc1C(F)(F)F [TFT, trifluridine]
EC50 [1]: 0.72 ± 0.28 µg/mL (≈ 2.43 µM)
EC50 (HSV-1 strain F; read-out: HSV-1 F EC50 (TK+)): 1 ± 0.2 µg/mL (≈ 3.38 µM)
EC50 (HSV-1 TK− strain DM2.1; [13]): 1.1 ± 0.3 µg/mL (≈ 3.71 µM)
EC50 [2]: 0.42 ± 0.33 µg/mL (≈ 1.42 µM)
CC50 (in vitro): > 100 µg/mL
